According to US20240207369A1, “In Vitro Drugs from Prodrugs and Use Thereof” (Brandenburgische Tehnische Universitat Cottbus-Senftenberg, priority 2021, published 2024):

Test system: human thrombocytes (platelets)
Test: ADP-induced platelet aggregation in whole blood, impedance aggregometry (Multiplate Analyzer)
Assay type: cell-based
Details: ADP 10 μM final; two-minute pre-incubation of the metabolite in blood of an apparently healthy subject; final metabolite concentration 0.31 mg per 1 mL; approx. 73% purity; FIG. 2
Description: Example of embodiment of the effect of a metabolite produced via peroxygenase on human platelets (blood platelets).
The metabolite is present as a powder (approx. 4 mg) in a dark container and is stored in a freezer at at least −80° C. until the solution is prepared. On the day of use, the drug is dissolved in 500 μl of a suitable sterile solvent (here: phosphate-buffered saline, PBS). Powder and solvent are mixed rigorously. The complete dissolution of the powder is to be visually checked. The mixture is stored on ice or at approx. 0° C. until use.
To test the functionality of the agent, the aggregation of human thrombocytes (platelets) in whole blood is determined by impedance aggregometry (Paniccia, R.; Antonucci, E.; Maggini, N.; Romano, E.; Gori, A. M.; Marcucci, R.; Prisco, D.; Abbate, R. Assessment of Platelet Function on Whole Blood by Multiple Electrode Aggregometry in High-Risk Patients with Coronary Artery Disease Receiving Antiplatelet Therapy. American journal of clinical pathology 2009, 131, 834-42, doi:10.1309/AJCPTE3K1SGAPOIZ). For the test, approximately 5 ml of fresh whole blood is collected from a visible vein at the elbow (cubital vein) of a subject by an appropriately trained person using appropriate sterile blood collection equipment. The blood is collected into a collection vessel designed for this purpose (e.g. Sarstedt Monovette, Sarstedt, Numbrecht, Germany). […]

`COC(=O)[C@H](c1ccccc1Cl)N1CCC(S)C(=CC(=O)O)C1` (stereo partly drawn) [metabolite, 2-(1-((S)-1-(2-chlorophenyl)-2-methoxy-2-oxoethyl)-4-mercaptopiperidin-3-ylidene)acetic acid] was tested, and the ADP-induced platelet aggregation was “reduction of ADP-induced platelet aggregation”.
